Nine compounds from patent US11453683B1, “KRas G12D inhibitors” (Mirati Therapeutics, Inc., priority 2019, dated 2022) can be followed below.

Structures are written as SMILES. Some results are limits rather than exact numbers.

This experiment deals with KRas G12D-mediated phosphorylation of ERK. Nature of the experiment: Inhibition of KRas G12D-mediated phosphorylation of ERK in AGS cells. It counts as cell-based. The following applies: Homo sapiens; AGS cells expressing G12D, 3 hours, phospho-ERK normalized to GAPDH. As for the experimental part:
Cells were plated in tissue culture treated 96 well plates at a density of 40,000 cells/well and allowed to attach for 12-14 hours. Diluted compounds were then added in a final concentration of 0.5% DMSO. After 3 hours, the medium was removed, 150 μL of 4.0% formaldehyde was added and the plates incubated at room temperature for 20 minutes. The plates were washed with PBS, and permeabilized with 150 μL of ice cold 100% methanol for 10 minutes. Non-specific antibody binding to the plates was blocked using 100 μL Licor blocking buffer (Li-Cor Biotechnology, Lincoln Nebr.) for 1 hour at room temperature.
The amount of phospho-ERK was determined using an antibody specific for the phosphorylated form of ERK and compared to the amount of GAPDH. Primary antibodies used for the detection were added as follows: Phospho-ERK (Cell Signaling cs-9101) diluted 1:500 and GAPDH (Millipore MAB374) diluted 1:5000 in Licor block+0.05% Tween 20. The plates were incubated for 2 hours at room temperature. The plates were washed with PBS+0.05% Tween 20.
Secondary antibodies used to visualize primary antibodies were added as follows: Anti-rabbit-680 diluted 1:1000 and Anti-mouse-800 diluted 1:1000 both in Licor block+0.05% TweeN2O, and were incubated for 1 hour at room temperature. The plates were washed with PBS+0.05% Tween 20. A 100 μL aliquot of PBS was added to each well and the plates were read on a Li-Cor Odyssey CLX plate reader.
The phospho-ERK (Thr202/Tyr204 signal was normalized to the GAPDH signal for each well and percent of DMSO control values were calculated. IC50 values were generated using a 4-parameter fit of the dose response curve
With `CN1CCC[C@H]1COc1nc(N2CC3CCC(Cl)(C2)N3)c2cnc(-c3cc(O)cc4ccccc34)c(F)c2n1` (stereo partly drawn) [Example 160, 4-(4-(1-chloro-3,8-diazabicyclo[3.2.1]octan-3-yl)-8-fluoro-2-(((S)-1-methylpyrrolidin-2-yl)methoxy)pyrido[4,3-d]pyrimidin-7-yl)naphthalen-2-ol bis(2,2,2-trifluoroacetate)], inhibition was half-maximal at 6.93 µM (IC50).
Regarding `Cn1ccnc1CCOc1nc(N2C[C@H]3C[C@@H](O)[C@@H](C2)N3)c2cnc(-c3cccc4cccc(Cl)c34)c(F)c2n1` [Example 173, (1R,5R,6R)-3-(7-(8-chloronaphthalen-1-yl)-8-fluoro-2-(2-(1-methyl-1H-imidazol-2-yl)ethoxy)pyrido[4,3-d]pyrimidin-4-yl)-3,8-diazabicyclo[3.2.1]octan-6-ol], the IC50 worked out at 10.5 µM.
Then `Fc1c(-c2cccc3cccc(Cl)c23)ncc2c(N3C[C@H]4CC[C@@H](C3)N4)nc(OC[C@]34CCCN3[C@@H](Cn3cccn3)CC4)nc12` [Example 418, 2-((3-((1H-pyrazol-1-yl)methyl)tetrahydro-1H-pyrrolizin-7a(5H)-yl)methoxy)-4-(3,8-diazabicyclo[3.2.1]octan-3-yl)-7-(8-chloronaphthalen-1-yl)-8-fluoropyrido[4,3-d]pyrimidine bis(2,2,2-trifluoroacetate)], with 2.74 µM; and `OC[C@@H]1CCN1c1nc(N2C[C@H]3CC[C@@H](C2)N3)c2cnc(-c3cc(O)cc4ccccc34)c(F)c2n1` [Example 121, 4-(4-((1R,5S)-3,8-diazabicyclo[3.2.1]octan-3-yl)-8-fluoro-2-((S)-2-(hydroxymethyl)azetidin-1-yl)pyrido[4,3-d]pyrimidin-7-yl)naphthalen-2-ol 2,2,2-trifluoroacetate], with 4.08 µM.
In turn, `COC1CN2CCCC2(COc2nc(N3CC4CCC(C3)N4)c3cnc(-c4cc(O)cc5cccc(F)c45)c(F)c3n2)C1` (mixture of isomers) [Example 388, 4-(4-((1R,5S)-3,8-diazabicyclo[3.2.1]octan-3-yl)-8-fluoro-2-((2-methoxytetrahydro-1H-pyrrolizin-7a(5H)-yl)methoxy)pyrido[4,3-d]pyrimidin-7-yl)-5-fluoronaphthalen-2-ol (mixture of trans diastereomers)] registered an IC50 of 0.0402 µM.
On to `CO[C@H]1CN[C@H](COc2nc(N3C[C@H]4CC[C@@H](C3)N4)c3cnc(-c4cccc5cccc(Cl)c45)c(F)c3n2)C1` [Example 351], for which the IC50 was above 16.7 µM.
Then `Fc1c(-c2cccc3cccc(Cl)c23)ncc2c(N3CC4CCC(C3)N4)nc(OC[C@@]34CCCN3C[C@@H](C(F)(F)F)C4)nc12` (mixture of isomers) [Example 382, 4-((1R,5S)-3,8-diazabicyclo[3.2.1]octan-3-yl)-7-(8-chloronaphthalen-1-yl)-8-fluoro-2-(((2S,7aS)-2-(trifluoromethyl)tetrahydro-1H-pyrrolizin-7a(5H)-yl)methoxy)pyrido[4,3-d]pyrimidine) (mixture of cis diastereomers)], with above 16.7 µM; and `Oc1cc(-c2ncc3c(N4C[C@H]5CC[C@@H](C4)N5)nc(OCC45CCCN4CCC5)nc3c2F)c2c(Cl)cccc2c1` [Example 36, 4-(4-((1R,5S)-3,8-diazabicyclo[3.2.1]octan-3-yl)-8-fluoro-2-((tetrahydro-1H-pyrrolizin-7a(5H)-yl)methoxy)pyrido[4,3-d]pyrimidin-7-yl)-5-chloronaphthalen-2-ol], with 0.108 µM.
Then `CC(Oc1nc(N2C[C@H]3CC[C@@H](C2)N3)c2cnc(-c3cc(O)cc4ccccc34)c(F)c2n1)C1CCCN1C` (stereo partly drawn) [Example 27, 4-(4-((1R,5S)-3,8-diazabicyclo[3.2.1]octan-3-yl)-8-fluoro-2-(1-(1-methylpyrrolidin-2-yl)ethoxy)pyrido[4,3-d]pyrimidin-7-yl)naphthalen-2-ol], with 1.28 µM.
